The assay relates to CEM cells HIV-1 protection, formazan growth assay. The experiment in a line: NCI AIDS Antiviral Assay. As to conditions: for pIC50: measured here: growth of uninfected CEM cells. Summed up: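 Screen of anti-HIV-1 activity in human CEM cells using a formazan-based growth measurement at five drug concentrations. Hits with 50% or greater protection were repeated, and confirmation required reproducible complete protection.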

By pEC50 is commonly meant the EC50 on a negative log10 scale, so that one unit is a factor of ten. As a reminder, the pIC50 is the negative decadic logarithm of the IC50, by convention in mol/L.

pEC50, pIC50: −log10 of the molar value. “And” between values parts separate entries of the source, which are not always exact repeats. Identical values can stand only once. The source made the active and inactive calls.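 Rule for the calls: active = compounds giving half or more protection of infected cells from virus-caused growth loss, again on retest; inactive = the rest.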

For `Cc1cc2c(cc1C)NC(=O)C(NC(=O)c1ccc(Cl)cc1)C=N2` (stereo not given), the pEC50 was below 3.70 and the pIC50 was below 3.70.
For `CN1C(=S)N2CCCCCCCC2c2c1nc(CCl)[nH]c2=O` (stereo not given), the pEC50 was below 3.70 and the pIC50 is 5.16.
With `CC(C)(C)c1ccc(-n2c3nc(=O)n(-c4ccccc4C(F)(F)F)c(=O)c-3cc3ccccc32)cc1`, the pEC50 was below 3.70 and the pIC50 was 4.80.
On the same counts, the results for `CCn1c(=O)c(N=O)c(N)n(CC(C)C)c1=O` are below 3.70 and 3.76.
The matching figures for `Cc1ccc(/C=c2\c(=O)[nH]c3nc4ccccc4c(=O)n23)cc1`: below 3.70 and 4.65.
Turning to `CCCC(=O)[O-].CCCC(=O)[O-].N.N.N.N.[Co+3].[O-][Cl+3]([O-])([O-])[O-]`, the result was inactive.
Regarding `COc1cc(C)c2c(c1)C=C1C(=O)C(=O)C(C(C)C)=C(O)C1=CC2`, the outcome was inactive.
Regarding `CCOc1ccccc1N=Nc1ccc2oc(=O)c(C(=O)Nc3cccc(C)c3)cc2c1`, the pEC50 was below 4.36 and the pIC50 was below 4.36.
`CCC(c1ccccc1)C1NC(=S)NC1=O` (stereo not given): the pEC50 is below 3.70 and the pIC50 is 3.86.
On the same counts, the results for `Nc1ccc(S(=O)(=O)O)cc1[N+](=O)[O-]` are below 2.94 and below 2.94.
The matching figures for `COc1cccc2c1OC1(N3CCOCC3)CCCCC1C2C[N+](=O)[O-]` (stereo not given): below 3.70 and below 3.70.
`CC#CCOC(=O)c1ccccc1OC(C)=O`: the pEC50 is below 3.70 and the pIC50 is below 3.70.
Regarding `Cn1c2ccc([N+](=O)[O-])cc2c(=O)n1Cc1ccccc1F`, the pEC50 is below 3.70 and the negative-log IC50 (pIC50) was 4.23.
The matching figures for `CSc1nnc(SC)nn1`: below 3.70 and 6.07.
With `NS(=O)(=O)c1ccc(CNC(=O)c2ccccc2SC(=O)CCCCC[n+]2ccccc2)cc1`, the pEC50 was 5.67 and the pIC50 was 4.40.
With `ClC[Si]12OCCN(CCO1)CCO2`, the result was inactive.
As to `O=[N+]([O-])c1ccc(Oc2ccc(S(=O)(=O)c3ccc(Oc4ccc([N+](=O)[O-])cc4)c([N+](=O)[O-])c3)cc2[N+](=O)[O-])cc1`, the pEC50 was below 3.70 and the pIC50 was below 3.70.
Turning to `CC(=O)OC1CN(OCC2OC(OC(C)=O)C(OC(C)=O)C(OC(C)=O)C2OC(C)=O)CC(OC(C)=O)C1OC(C)=O` (stereo not given), the pEC50 was below 3.70 and the pIC50 was below 3.70.
Turning to `COc1cc(C)cc2c(-c3ccc(O)c4c(OC)cc(C)cc34)ccc(O)c12`, the pEC50 was below 4.00 and the pIC50 was 5.53.
On the same counts, the results for `NC(=Nc1ccccc1)N/N=C/c1c[nH]c2ccccc12` are below 3.42 and 6.65.
The matching figures for `COc1ccc2c(C)cc(=O)oc2c1OC`: below 3.70 and below 3.70.
With `COc1ccc2[nH]cc([C@@H]3C4CCC(C4)[C@H]3NCc3cccc(CN[C@H]4C5CCC(C5)[C@@H]4c4c[nH]c5ccc(OC)cc45)c3)c2c1`, the pEC50 was below 5.70; the pIC50 is 6.49 and 6.21.
With `N#CC(C(=O)/C(=N/NC(=O)c1ccccc1O)C(C#N)c1ccc(Cl)cc1)c1ccc(Cl)cc1` (stereo not given), the pEC50 is below 4.39 and the pIC50 is 4.65.
On the same counts, the results for `CC(=O)SC(SC(C)=O)SC(C)=O` are below 3.68 and 3.81.
On the same counts, the results for `CC1(C)CS(=O)(=O)CC(C)(C)C(=N/N)/C1=N\N` are below 3.70 and below 3.70.
For the molecule `COc1ccc(NC(=O)CC(=O)N2N=C(N(CCC#N)c3ccccc3Cl)CC2c2ccccc2)cc1` (stereo not given), the pEC50 is below 4.30 and the pIC50 was below 4.30.
In the case of `c1cnn([B-]2(n3cccn3)n3ccc[n+]3[B-](n3cccn3)(n3cccn3)n3ccc[n+]32)c1`, the pEC50 is below 3.70 and the negative-log IC50 (pIC50) is below 3.70.
For the molecule `COc1c(O)c2c(=O)cc(OC)c3c4c(OC)cc(=O)c5c(O)c(OC)c6c(c(c1CC(C)=C6OC(C)=O)c23)c54`, the pEC50 was below 5.32 and the pIC50 is 5.89.
As to `O=C1CCC(=O)N1N1C(=O)CCC1=O`, the pEC50 is below 3.70 and the pIC50 was below 3.70.
Turning to `O=NN(O)c1ccccc1.O=NN(O)c1ccccc1.[Cu]`, the outcome was inactive.
Turning to `OC(Cc1ccc2ccccc2n1)(C(F)(F)Cl)C(F)(F)Cl`, the pEC50 is below 3.70 and the pIC50 was 4.09.
The matching figures for `COC(=O)C(C)(C)OCc1ccc(C2NC(=O)N(c3cccc(Cl)c3)C(=O)N2c2cccc(Cl)c2)cc1` (stereo not given): below 3.70 and 4.62.
On the same counts, the results for `CCc1nc2ccc(N=Nc3c(O)ccc4ccccc34)cc2[nH]1` are below 4.23 and 4.61.
On the same counts, the results for `O=C1CC(=O)n2cnc3cccc(c32)N1` are 4.76 and below 3.70.
For `CC(=C(C(=O)O)C(=O)O)c1cc(-c2cccs2)cc(-c2ccc(Cl)cc2)c1O`, the pEC50 is below 3.70 and the pIC50 was 4.91.
The matching figures for `NC(CCP(=O)(O)CCC1C=CC=CC1)C(=O)O` (stereo not given): below 3.70 and below 3.70.
Turning to `COC(=O)Nc1cn2ccsc2n1`, the outcome was inactive.
For the molecule `Cc1nsc2cc(Cl)n(C)c(=O)c12`, the pEC50 was below 5.17 and the pIC50 is below 5.17.
With `CN1C(=O)N(C)C2(CCN(CC(CC3OCCO3)c3ccc(F)cc3)CC2)C1=O` (stereo not given), the pEC50 was below 3.70 and the pIC50 was below 3.70.
Take `COC(=O)C1=CC(NC(=O)OCc2ccccc2)C(C(=O)c2ccccc2)C[C@@H]1Sc1ccccc1` (stereo not given in full): the outcome was inactive.
For the molecule `O=C1C2C3CCC(C3)C2C(=O)C2C3CCC(C3)C12` (stereo not given), the pEC50 is below 3.70 and the pIC50 is 3.73.
As for `Cc1ccc(C(=O)O)c(/C=C2\Cc3ccc(C)cc3C2=O)c1`, the pEC50 is below 3.70 and the pIC50 is 4.01.
In the case of `C[C@]12c3c4cc(NC(=O)C(=O)NCc5ccc(-c6ccccn6)nc5)cc3Oc3cc(NC(=O)C(=O)NCc5ccc(-c6ccccn6)nc5)cc(c31)OC1C=C(NC(=O)C(=O)NCc3ccc(-c5ccccn5)nc3)C=C(O4)C12` (stereo not given in full), the pEC50 is below 4.00 and the pIC50 was 4.67.
Regarding `NC(=O)NCc1c(C(N)=O)ncn1Cc1ccccc1`, the result was inactive.
`O=[As](O)(O)c1ccc(-c2ccc([As](=O)(O)O)cc2)cc1` had a pEC50 below 3.70 and a pIC50 below 3.70.
For `NC(=S)N/N=C1\C(=O)N(CCc2ccccc2)C(=O)C1C(=O)NCCc1ccccc1` (stereo not given), the pEC50 was below 4.09 and the pIC50 is 4.15.
The matching figures for `O=C1[C@@H]2[C@@H](CN3CN(c4ccccc4)N=C(c4ccccc4)[C@@]23c2ccccc2)C(=O)N1c1ccccc1`: below 4.70 and 5.53.
For the molecule `CCOc1cc(NCCCN)c2nc(OCc3ccccc3)ccc2c1`, the pEC50 was below 3.70 and the pIC50 is 4.59.
The matching figures for `COC1/C=C/OC2(C)Oc3c(C)c(O)c4c(O)c(cc(OCC(=O)N(C)CC(=O)OC(C)(C)C)c4c3C2=O)NC(=O)/C(C)=C/C=C/C(C)C(O)C(C)C(O)C(C)C(OC(C)=O)C1C` (stereo not given): below 3.70 and 4.55.
For `C=CCCCC(C#N)(c1ccccc1)N1CCCC1` (stereo not given), the outcome was inactive.
Regarding `CCc1cc(CCC(=O)Nc2c(C)cccc2C)[nH]n1`, the pEC50 is below 3.04 and the pIC50 was below 3.04.
As to `O=C(O)CN(c1ccccc1)S(=O)(=O)c1cccc([N+](=O)[O-])c1`, the result was inactive.
Regarding `N/C1=C/C(=O)NC(=O)c2c(c3ccccc3oc2=O)C1`, the pEC50 was below 3.70 and the pIC50 is below 3.70.
For the molecule `Cc1cc(=O)n2nc(CN3CCCCC3)sc2n1`, the pEC50 was below 3.70 and the pIC50 was 3.76.
The matching figures for `CCN1CCC(O)(/C=C/c2ccc(C)cc2)C(C(=O)/C=C/c2ccc(C)cc2)C1` (stereo not given): below 3.93 and 5.59.
For the molecule `CCOC(=O)CCN1C(=O)c2ccc(NC(=O)C(=O)O)cc2S1(=O)=O`, the pEC50 was below 3.70 and the pIC50 is below 3.70.
As for `COC(=O)C1=CCC(n2cc(C)c(=O)[nH]c2=O)CC1` (stereo not given), the pEC50 was below 3.59 and the pIC50 was below 3.59.
Consider `NC(=O)c1cc(N(CCO)CCO)c([N+](=O)[O-])cc1[N+](=O)[O-]`, for which the pEC50 is below 3.70 and the pIC50 is below 3.70.
As to `Nc1ccc(-c2cc(C(=O)Nc3nccs3)[nH]c(=S)n2)cc1`, the pEC50 is below 3.12 and the pIC50 was 3.39.
The matching figures for `CC(C)CN(CC(C)C)CN1C(=O)/C(=C/c2ccc([N+](=O)[O-])cc2)SC1=S`: below 3.70 and 4.80.
On the same counts, the results for `COc1cc(CC(=O)O)c(C(=O)c2ccc([N+](=O)[O-])cc2)cc1OC` are below 3.70 and below 3.70.
The matching figures for `O=c1c2ccccc2[nH]c2c(Cl)cc(Cl)c(NC3CCCCC3)c12`: below 3.70 and 4.55.
For `COc1cc2c(cc1OC)C1c3ccccc3CCCN1CC2` (stereo not given), the pEC50 is below 3.70 and the pIC50 is 3.91.
With `CN(C)c1ccc(/C=C/c2ccc(/C=C/c3ccc(N(C)C)cc3)cc2)cc1`, the result was inactive.
For the molecule `CC1OC(OCC2OC(Oc3ccc4c(=O)c(-c5ccc6c(c5)OCO6)coc4c3)C(O)C(O)C2O)C(O)C(O)C1O` (stereo not given), the pEC50 was 3.89 and the pIC50 was 3.74.
In the case of `CC(C)CC1CC2C(=O)N(c3ccccc3)C(=O)C2c2[nH]c3ccccc3c21` (stereo not given), the outcome was inactive.
Consider `COC(=O)[C@@H](NS(=O)(=O)CC12CCC(CC1)C2(C)C)C(C)(C)C`, for which the pEC50 is below 3.70 and the pIC50 is below 3.70.
Consider `COc1ccc2c(c1)OCC1(O)Cc3ccccc3OC21` (stereo not given), for which the pEC50 is below 3.70 and the pIC50 is 3.97.
On the same counts, the results for `NS(=O)(=O)c1nnc(NS(=O)(=O)c2cccc3cccnc23)s1` are below 3.70 and below 3.70.
As for `CCOP(=O)(OCC)C(Nc1ccc(Cl)cc1)c1ccc(F)cc1` (stereo not given), the result was inactive.
With `CC(=O)OC1CCC23COC(CC(C)C2C)C3(Cl)C1` (stereo not given), the pEC50 was below 3.70 and the pIC50 was below 3.70.
